{"source": "patent US7531162B2", "about": "“Transcobalamin receptor binding conjugates useful for treating abnormal cellular proliferation” (Mayo Foundation for Medical Education and Research, priority 2000, dated 2009)", "key": {"[1]": {"experiment": "pH of 1000 μg/10 mL solutions in normal saline", "type": "physicochemical", "conditions": "1000 μg in 10 mL normal saline, room temperature, no buffers", "procedure": "(§1) Under dim light, 1000 μg of the non-labeled methyl-, adenosyl-, and cyanocobalamin-b-(4-aminobutyl)amide-DTPA, as well as 1000 μg of cyanocobalamin and DTPA (Sigma, St. Louis, Mo. 63178), were separately dissolved in 10 mL of normal saline at room temperature. Each of the five 1000 μg/10 mL samples was stored in sealed, aluminum-wrapped 10 mL vials to prevent exposure to light. No buffers were added to the solutions. The pH of the solutions, measured by a Beckman 40 pH meter (Beckman Instruments, Fullerton, Calif.): Cyanocobalamin=5.75, DTPA=3.78; cyano, methyl and adenosylcobalamin-DTPA analogues were 5.75, 6.10, and 6.19, respectively."}, "[2]": {"test_system": "Intrinsic Factor (IF)", "experiment": "modified intrinsic factor blocking antibody (IFBA) assay, competition with Co-57-cyanocobalamin", "type": "binding", "conditions": "for binding to IF in the IFBA assay (in words): competition with Co-57 cyanocobalamin, compared with negative reference; for averaged percent binding to IF: non-labeled solution (1000 μg/10 mL saline, 1 μL) preincubated with purified IF, then Co-57-cyanocobalamin, average over five patients' runs, estimated from counts vs Clinical run", "procedure": "as §1\nTo assess in vitro binding to Intrinsic Factor (IF) and Transcobalamins (TC), the intrinsic factor blocking antibody (IFBA) and Unsaturated vitamin B12 Binding Capacity (UBBC) assays were performed with serum randomly obtained from five patients being evaluated for pernicious anemia at the Mayo Clinic. The IFBA and UBBC assays were first performed for clinical purposes as previously described by V. F. Fairbanks et al., Mayo Clin. Proc., 58, 203 (1983); Intrinsic Factor Blocking Antibody (^57Co) Radioassay-Package insert, Diagnostic Products Corp.; D. Grossowicz et al., Proc. Exp. Biol., 109, 604 (1962) and C. Gottlieb et al., Blood, 25, 6 (1965).\nNext, the serum from the same five patients underwent modified IFBA and UBBC assays. Specifically, 1 μL of the five previously described solutions was separately incubated with purified IF or serum, to potentially saturate all IF and TC-binding sites.\nAfter incubation for 20 minutes at room temperature and for another 20 minutes at 4° C., 500 μl of the stock (1000 μg/l) Cobalt-57-cyanocobalamin (Mallinckrodt Medical, Inc., St. Louis, Mo. 63134) solution was added and the usual IFBA and UBBC protocols were then followed. All supernatant activity was counted for four minutes on a gamma counter (Micromedix 10/20, Huntsville, Ala. 35805).\nBy using the counts of the Clinical run divided into the counts of the five solutions, the efficacy of binding to intrinsic factor can be estimated. The averaged percent binding of the five solutions to IF was: cyanocobalamin=92.5%; methyl-cobalamin-b-(4-aminobutyl)-amide-DTPA=63.2%; cyanocobalamin-b-(4-aminobutyl)-amide-DTPA=52.9%; adenosylcobalamin-b-(4-aminobutyl)-amide-DTPA=41.0% and 0.8% for DTPA."}, "[3]": {"test_system": "transcobalamin proteins", "experiment": "modified Unsaturated vitamin B12 Binding Capacity (UBBC) assay with patient serum", "parameters": "species or system human", "conditions": "non-labeled solution (1000 μg/10 mL saline, 1 μL) preincubated with serum of five patients, then Co-57-cyanocobalamin", "procedure": "Louis, Mo. 63178), were separately dissolved in 10 mL of normal saline at room temperature. […] No buffers were added to the solutions. The pH of the solutions, measured by a Beckman 40 pH meter (Beckman Instruments, Fullerton, Calif.): […] To assess in vitro binding to Intrinsic Factor (IF) and Transcobalamins (TC), the intrinsic factor blocking antibody (IFBA) and Unsaturated vitamin B12 Binding Capacity (UBBC) assays were performed with serum randomly obtained from five patients being evaluated for pernicious anemia at the Mayo Clinic. The IFBA and UBBC assays were first performed for clinical purposes as previously described by V. F. Fairbanks et al., Mayo Clin. Proc., 58, 203 (1983); Intrinsic Factor Blocking Antibody (^57Co) Radioassay-Package insert, Diagnostic Products Corp.; D. Grossowicz et al., Proc. Exp. Biol., 109, 604 (1962) and C. Gottlieb et al., Blood, 25, 6 (1965). Next, the serum from the same five patients underwent modified IFBA and UBBC assays. Specifically, 1 μL of the five previously described solutions was separately incubated with purified IF or serum, to potentially saturate all IF and TC-binding sites. […] Louis, Mo. 63134) solution was added and the usual IFBA and UBBC protocols were then followed. All supernatant activity was counted for four minutes on a gamma counter (Micromedix 10/20, Huntsville, Ala. 35805). […] Comparison of cyanocobalamin-DTPA to cyanocobalamin was 66.4% (Transcobalamin II receptor imaging via radiolabeled diethylene-triaminepentaacetate cobalamin analogs, J. Nucl. Med., 38, 717-723 (1997); also described in U.S. Pat. […] A. Collins, […], Tumor Imaging Indium-111-labeled DTPA-adenosylcobalamin, Mayo Clinic Proceedings, 1999; 74; 687-691; Biodistribution of Radiolabeled Adenosylcobalamin in Humans, Review of 30 patents submitted to Mayo Clinic Proceedings). This should improve tumor-to-background ratio, which can be evaluated in murine tumor models. Attachment of either the adenosyl and methyl group as the beta ligand should improve the biological activity as it did with the cyanocobalamin mono-DTPA compound (Transcobalamin II receptor imaging via radiolabeled diethylene-triaminepentaacetate cobalamin analogs, J. Nucl. Med., 38, 717-723 (1997); also described in U.S. Pat."}, "[4]": {"conditions": "Deprez-Decampaneere et al. 1978; cited from earlier work"}, "[5]": {"test_system": "transcobalamin proteins", "conditions": "relative to cyanocobalamin; J. Nucl. Med. 38, 717-723 (1997), U.S. Pat. No. 5,739,313; cited from earlier work"}}}
{"compound": "cyanocobalamin", "values": [{"measurement": "pH of the solution", "setting": "[1]", "value": 5.75}, {"measurement": "binding to IF in the IFBA assay (in words)", "setting": "[2]", "value": "competitively inhibit Co-57 cyanocobalamin from binding to intrinsic factor"}, {"measurement": "averaged percent binding to IF", "setting": "[2]", "value": 92.5, "unit": "%"}, {"measurement": "averaged percent binding to the transcobalamin proteins", "setting": "[3]", "value": 100, "unit": "%"}]}
{"compound": "Adenosylcobalamin-b-(4-aminobutyl)amide DTPA", "values": [{"measurement": "pH of the solution", "setting": "[1]", "value": 6.19}, {"measurement": "averaged percent binding to IF", "setting": "[2]", "value": 41.0, "unit": "%"}, {"measurement": "averaged percent binding to the transcobalamin proteins", "setting": "[3]", "value": 90.4, "unit": "%"}]}
{"compound": "COc1cccc2c1C(=O)c1c(O)c3c(c(O)c1C2=O)CC(O)(C(C)=O)CC3OC1CC(NC(=O)C(N)CC(C)C)C(O)C(C)O1", "note": "(single isomer, unassigned) [D isomer]", "values": [{"measurement": "hydrolysis in vivo to regenerate daunorubicin", "setting": "[4]", "value": "not"}]}
{"compound": "COc1cccc2c1C(=O)c1c(O)c3c(c(O)c1C2=O)C[C@@](O)(C(C)=O)C[C@@H]3O[C@H]1C[C@H](NC(=O)[C@@H](N)CC(C)C)C(O)[C@H](C)O1", "note": "(stereo partly drawn) [N-(L-leucyl) daunorubicin]", "values": [{"measurement": "hydrolysis in vivo to regenerate daunorubicin", "setting": "[4]", "value": "hydrolyzed in vivo to regenerate daunorubicin"}]}
{"compound": "Methylcobalamin-b-(4-aminobutyl)amide DTPA", "values": [{"measurement": "pH of the solution", "setting": "[1]", "value": 6.10}, {"measurement": "averaged percent binding to IF", "setting": "[2]", "value": 63.2, "unit": "%"}, {"measurement": "averaged percent binding to the transcobalamin proteins", "setting": "[3]", "value": 94.0, "unit": "%"}]}
{"compound": "O=C(O)CN(CCN(CC(=O)O)CC(=O)O)CCN(CC(=O)O)CC(=O)O", "note": "[DTPA, diethylenetriaminepentaacetic acid]", "values": [{"measurement": "pH of the solution", "setting": "[1]", "value": 3.78}, {"measurement": "binding to IF in the IFBA assay (in words)", "setting": "[2]", "value": "does not significantly bind to IF"}, {"measurement": "averaged percent binding to IF", "setting": "[2]", "value": 0.8, "unit": "%"}, {"measurement": "averaged percent binding to the transcobalamin proteins", "setting": "[3]", "value": 3.6, "unit": "%"}]}
{"compound": "Cyanocobalamin-b-(4-aminobutyl)amide DTPA", "values": [{"measurement": "pH of the solution", "setting": "[1]", "value": 5.75}, {"measurement": "averaged percent binding to IF", "setting": "[2]", "value": 52.9, "unit": "%"}, {"measurement": "averaged percent binding to the transcobalamin proteins", "setting": "[3]", "value": 66.4, "unit": "%"}, {"measurement": "in vitro UBBC comparison to cyanocobalamin", "setting": "[5]", "value": 66.4, "unit": "%"}]}
